Test systems include A498 renal; CCRF-CEM leukemia; DU-145 prostate; ACHN renal; UACC-257 melanoma; SNB-19 CNS; COLO 205 colon; 786-0 renal; EKVX NSCLC; HOP-92 NSCLC.
Common to all, as to assay: NCI-60 cell line screen, 48 h

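Results reflect a 48-hour exposure of cells in 96-well plates to compound at five concentrations. TGI: concentration producing complete growth inhibition.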 A value given as a limit tells only on which side of the number the result lay.

This note sets out measurements from PubChem BioAssay (NCI).

For `Cn1c2ccccc2c2cc(N3CCCC3)c3c(c21)C(=O)N(c1ccccc1)C3=O`, the TGI with A498 renal, with CCRF-CEM leukemia, with DU-145 prostate, in the assay with ACHN renal, in the assay on UACC-257 melanoma and with SNB-19 CNS was more than 100 µM each time. Moreover, the TGI is more than 100 µM in the assay with COLO 205 colon, 95.5 µM in the assay on 786-0 renal and more than 100 µM with EKVX NSCLC.

With `CC(C)C(=O)/C=C/S/C=C/C(=O)C(C)C`, the TGI in the assay with DU-145 prostate is 29.4 µM; in the assay on ACHN renal, 5.27 µM; in the assay on UACC-257 melanoma, 6.5 µM; in the assay with SNB-19 CNS it was more than 100 µM; in the assay on COLO 205 colon, 8.16 µM; in the assay with 786-0 renal, 6.52 µM. In addition, the TGI with EKVX NSCLC was 90.9 µM.

Consider `C/C=C(\C)C(=O)O[C@@H]1CC(C)(C)CC2C3=CCC4[C@]56CC[C@](O)(OC5)C(C)(C)C6CC[C@@]4(C)C3(C)CC[C@]21C(=O)O` (some centres not stated), for which the TGI in the assay with A498 renal, in the assay with CCRF-CEM leukemia, in the assay with DU-145 prostate, in the assay with ACHN renal, with UACC-257 melanoma and in the assay on SNB-19 CNS was more than 100 µM throughout. Moreover, the TGI in the assay on COLO 205 colon, in the assay with 786-0 renal and with EKVX NSCLC was more than 100 µM throughout.

Consider `COC(=O)CNC(=O)CCC(C)[C@H]1CCC2C3C(C[C@H](OC(C)=O)[C@@]21C)[C@@]1(C)CCC2(C[C@H]1C[C@H]3OC(C)=O)OOC1(CC[C@]3(C)C4C[C@H](OC(C)=O)[C@@]5(C)C(CC[C@@H]5C(C)CCC(=O)NCC(=O)OC)C4[C@H](OC(C)=O)C[C@@H]3C1)OO2` (some centres not stated), for which the TGI was 39.8 µM with A498 renal; 1.57 µM in the assay on CCRF-CEM leukemia; 1.57 µM with ACHN renal; 2.64 µM in the assay with HOP-92 NSCLC; 2.74 µM in the assay on UACC-257 melanoma; more than 50 µM in the assay with SNB-19 CNS. Also, the TGI in the assay with 786-0 renal is 1.42 µM; in the assay with EKVX NSCLC, 1.78 µM.

As for `CC(=O)O[C@H]1C(=O)[C@@]2(C)[C@H]([C@H](OC(=O)c3ccccc3)[C@]3(O)C[C@H](OC(=O)[C@H](O)[C@@H](NC(=O)c4ccccc4)c4cccc(N(C)C)c4)C(C)=C1C3(C)C)[C@]1(OC(C)=O)CO[C@@H]1C[C@@H]2O`, the TGI in the assay on A498 renal is 9.02 µM; in the assay on DU-145 prostate, 1.58 µM; in the assay on ACHN renal, more than 16.4 µM; in the assay with HOP-92 NSCLC, more than 75 µM; in the assay with UACC-257 melanoma, more than 75 µM; in the assay on SNB-19 CNS, more than 41.9 µM. The TGI with COLO 205 colon is 0.285 µM; with 786-0 renal it was 13.3 µM; in the assay on EKVX NSCLC, more than 75 µM.

For the molecule `COc1ccc(-c2ncn(C[Si](C)(C)C)c2-c2ccc(OC)cc2)cc1`, the TGI in the assay with ACHN renal came to 20.5 µM; with HOP-92 NSCLC, 17.5 µM; in the assay on UACC-257 melanoma, 16.7 µM; with SNB-19 CNS, 26.2 µM; with COLO 205 colon, 11.7 µM; with 786-0 renal, 18.7 µM. Moreover, in the assay on EKVX NSCLC, the TGI came to 12.1 µM.

`CCCCCCCCP(=O)(O)OP(=O)(O)OCC1OC(n2ccc(N)nc2=O)C(O)C1O` (configuration not stated): the TGI in the assay with A498 renal, in the assay with CCRF-CEM leukemia, in the assay on ACHN renal, in the assay on HOP-92 NSCLC, with UACC-257 melanoma and in the assay on SNB-19 CNS was more than 100 µM in each case. In addition, the TGI in the assay on COLO 205 colon, in the assay with 786-0 renal and with EKVX NSCLC was more than 100 µM throughout.

In the case of `COC(=O)c1c2c(cc3c1CC1(Cc4cc5c(c(C(C)=O)c4C1)CCCC5)C3)CCCC2` (configuration not stated), the TGI in the assay on A498 renal was more than 100 µM; in the assay with CCRF-CEM leukemia, 88.1 µM; in the assay on ACHN renal, more than 100 µM; with HOP-92 NSCLC, more than 100 µM; in the assay on UACC-257 melanoma, more than 100 µM; with COLO 205 colon, more than 100 µM. Also, the TGI in the assay on 786-0 renal and with EKVX NSCLC was more than 100 µM each time.

For the molecule `O=C(N/N=C\c1cccc2ccccc12)Nc1cccc2ccccc12`, the TGI is 51.3 µM in the assay on A498 renal; more than 100 µM with CCRF-CEM leukemia; more than 100 µM in the assay on DU-145 prostate; more than 100 µM in the assay on ACHN renal; more than 100 µM with UACC-257 melanoma; 48.9 µM in the assay with SNB-19 CNS. The figures for the TGI with COLO 205 colon, with 786-0 renal and with EKVX NSCLC were more than 100 µM, 28.1 µM and more than 100 µM, respectively.

`C#C[C@@]1(O)CCCC2=CC3(CC[C@]21C)SCCS3`: the TGI with A498 renal, in the assay with DU-145 prostate, with ACHN renal, in the assay on HOP-92 NSCLC, in the assay on UACC-257 melanoma and with SNB-19 CNS was more than 100 µM each time. Moreover, the TGI in the assay on COLO 205 colon, in the assay with 786-0 renal and in the assay with EKVX NSCLC was more than 100 µM in each case.

For `C=CC(C)C1(CCCOCc2ccccc2)C(=S)N2CCC3(CC24CCCC14)OCCO3` (configuration not stated), the TGI with A498 renal, in the assay with CCRF-CEM leukemia, in the assay on ACHN renal, with UACC-257 melanoma, in the assay on SNB-19 CNS and with COLO 205 colon was more than 100 µM in each case. The molecule also registered a TGI in the assay on EKVX NSCLC of more than 100 µM.

`COC(=O)C1CCC(=O)N1C(c1cc(OC)c(OC)c(OC)c1)c1cccc2ccccc12` (configuration not stated): the TGI with A498 renal, with DU-145 prostate, in the assay with ACHN renal, in the assay with HOP-92 NSCLC, with UACC-257 melanoma and in the assay on SNB-19 CNS was more than 100 µM throughout. Also, the TGI in the assay with 786-0 renal and in the assay with EKVX NSCLC was more than 100 µM each time.

As for `CNC(=O)SCC(NC(=O)CCC(N)C(=O)O)C(=O)NCC(=O)O` (configuration not stated), the TGI in the assay with A498 renal, in the assay with CCRF-CEM leukemia, in the assay on HOP-92 NSCLC, in the assay on UACC-257 melanoma, in the assay with SNB-19 CNS and with COLO 205 colon was more than 100 µM each time. For the same molecule, the TGI in the assay with EKVX NSCLC was more than 100 µM.

In the case of `COC(=O)C1=C(C(=O)OC)C(N(C)C)C(C(=O)OC)=C(C(=O)OC)S1`, the TGI with A498 renal, with DU-145 prostate, in the assay on ACHN renal, in the assay on UACC-257 melanoma, with SNB-19 CNS and with COLO 205 colon was more than 100 µM in each case. Besides, the TGI in the assay with 786-0 renal is more than 100 µM.

With `O=C(c1cccs1)N1CCCN(C(=O)c2cccs2)C1=S`, the TGI with A498 renal, with CCRF-CEM leukemia, in the assay with DU-145 prostate, in the assay with ACHN renal, in the assay with UACC-257 melanoma and in the assay with SNB-19 CNS was more than 100 µM each time. The TGI in the assay on COLO 205 colon, in the assay with 786-0 renal and in the assay with EKVX NSCLC was more than 100 µM in each case.
